Source: ChEMBL document CHEMBL1201862, “PubChem BioAssay data set” (2004)
Calls of active or inactive are those of the source.

How the values were obtained:
[1] = molecular target: T1, High affinity choline transporter 1 (Homo sapiens, UniProt Q9GZV3); test: human choline transporter blockers, potency – cell-based, 10-point CRC, membrane potential dye, dose response (AID 588401); format: functional;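 further: membrane potential dye fluorescence of choline-evoked depolarization via CHT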
[2] = molecular target: T1, High affinity choline transporter 1; test: human choline transporter blockers, potency – cell-based, 5-point CRC, membrane potential dye, dose response (AID 504840); format: functional
[3] = molecular target: T2, DNA dC->dU-editing enzyme APOBEC-3A (Homo sapiens, UniProt P31941); test: SAR analysis of small molecule inhibitors of APOBEC3A DNA Deaminase via a fluorescence-based single-stranded DNA deaminase assay - Set 2.; format: functional; conditions: read-out: IC50_Mean
T2 sequence (P31941 whole entry): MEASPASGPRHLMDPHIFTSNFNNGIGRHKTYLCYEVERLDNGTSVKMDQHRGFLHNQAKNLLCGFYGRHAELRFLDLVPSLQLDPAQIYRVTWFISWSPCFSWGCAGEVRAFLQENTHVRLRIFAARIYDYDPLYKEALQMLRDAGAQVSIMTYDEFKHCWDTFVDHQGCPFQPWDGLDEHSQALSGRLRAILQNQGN

[4] = molecular target: Large T antigen (Simian virus 40, UniProt P03070); format: functional, Betapolyomavirus macacae;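 further: Confirmatory-stage PubChem screen for compounds that inhibit SV40 T antigen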
[5] = molecular target: T3, DNA dC->dU-editing enzyme APOBEC-3G (Homo sapiens, UniProt Q9HC16); test: Dose Response confirmation of small molecule APOBEC3G DNA Deaminase Inhibitors via a fluorescence-based single-stranded DNA deaminase assay. [Related pubchem assays (depositor defined):AID493012, AID493028]; format: functional
T3 sequence (Q9HC16 whole entry): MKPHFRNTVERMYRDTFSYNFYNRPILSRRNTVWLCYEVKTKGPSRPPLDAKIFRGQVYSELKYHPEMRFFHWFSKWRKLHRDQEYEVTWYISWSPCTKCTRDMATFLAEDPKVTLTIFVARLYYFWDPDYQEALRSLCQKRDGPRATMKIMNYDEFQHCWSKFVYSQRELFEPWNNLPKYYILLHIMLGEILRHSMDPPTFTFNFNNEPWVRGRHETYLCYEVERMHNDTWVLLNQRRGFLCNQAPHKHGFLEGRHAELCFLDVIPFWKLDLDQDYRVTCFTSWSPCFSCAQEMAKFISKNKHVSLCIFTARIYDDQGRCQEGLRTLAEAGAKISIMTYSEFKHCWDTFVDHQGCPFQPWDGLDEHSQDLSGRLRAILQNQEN

[6] = molecular target: T3, DNA dC->dU-editing enzyme APOBEC-3G; test: SAR analysis of small molecule inhibitors of APOBEC3G DNA Deaminase via a fluorescence-based single-stranded DNA deaminase assay - Set 2.; format: functional; conditions: read-out: IC50_Mean
[7] = molecular target: T2, DNA dC->dU-editing enzyme APOBEC-3A; test: A3A deaminase inhibition for selectivity – biochemical, dose response (AID 504722); format: functional
[8] = molecular target: Genome polyprotein (dengue virus type 2, UniProt P29990); test: flavivirus cap methylation enzyme inhibition – biochemical, confirmation dose response, primary screen (AID 588689); format: functional
[9] = system: Streptococcus; test: GAS UMAA2166 growth inhibition – luminescence, BacTiterGlo, counter-screen for streptokinase expression inhibitor project, dose response (AID 1915); format: functional, organism-based;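 further: potency for reduction of bacterial viability or growth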
[10] = molecular target: T4, Streptokinase A (Streptococcus pyogenes serotype M1, UniProt P10520); test: viability-normalized secreted streptokinase activity reduction – plasminogen activation absorbance, OD405, dose response (AID 1914); format: functional, Streptococcus pyogenes M1 GAS;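 further: secreted streptokinase activity via plasminogen activation per viability signal from cell pellet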
T4 sequence (P10520 whole entry): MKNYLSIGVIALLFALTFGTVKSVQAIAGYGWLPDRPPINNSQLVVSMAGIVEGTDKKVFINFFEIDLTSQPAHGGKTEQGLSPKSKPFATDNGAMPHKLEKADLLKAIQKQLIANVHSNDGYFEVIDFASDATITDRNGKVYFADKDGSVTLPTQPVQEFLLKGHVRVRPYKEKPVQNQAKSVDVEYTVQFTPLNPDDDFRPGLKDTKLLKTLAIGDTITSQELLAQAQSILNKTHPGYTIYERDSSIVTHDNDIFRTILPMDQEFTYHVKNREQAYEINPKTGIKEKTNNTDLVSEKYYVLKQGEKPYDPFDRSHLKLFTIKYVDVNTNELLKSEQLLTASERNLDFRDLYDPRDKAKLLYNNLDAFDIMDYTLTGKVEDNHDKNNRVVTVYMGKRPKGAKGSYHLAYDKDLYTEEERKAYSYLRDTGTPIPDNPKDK

[11] = system: Vero; test: viability of Vero cells under compound – cytotoxicity control for flavivirus capping enzyme inhibitors (AID 588742); format: functional; conditions: Chlorocebus sabaeus
[12] = system: Streptococcus sp. 'group A'; test: Streptococcus pyogenes SK(-)GAS viability under kanamycin – luminescence, BacTiterGlo, confirmation, counter-screen for streptokinase expression inhibitor project, dose response (AID 1900); format: functional, organism-based
[13] = molecular target: DNA topoisomerase (Yersinia pestis, UniProt A0A2S9PM60); test: Yersinia topoisomerase I cleavage product accumulation – biochemical, cherry-pick, dose response (AID 588525)
[14] = molecular target: NS3 (Hepatitis C virus, UniProt A3EZJ3); test: PubChem AID 2173; parameters: species or system Hepacivirus hominis
Chain of NS3 (A3EZJ3 whole entry): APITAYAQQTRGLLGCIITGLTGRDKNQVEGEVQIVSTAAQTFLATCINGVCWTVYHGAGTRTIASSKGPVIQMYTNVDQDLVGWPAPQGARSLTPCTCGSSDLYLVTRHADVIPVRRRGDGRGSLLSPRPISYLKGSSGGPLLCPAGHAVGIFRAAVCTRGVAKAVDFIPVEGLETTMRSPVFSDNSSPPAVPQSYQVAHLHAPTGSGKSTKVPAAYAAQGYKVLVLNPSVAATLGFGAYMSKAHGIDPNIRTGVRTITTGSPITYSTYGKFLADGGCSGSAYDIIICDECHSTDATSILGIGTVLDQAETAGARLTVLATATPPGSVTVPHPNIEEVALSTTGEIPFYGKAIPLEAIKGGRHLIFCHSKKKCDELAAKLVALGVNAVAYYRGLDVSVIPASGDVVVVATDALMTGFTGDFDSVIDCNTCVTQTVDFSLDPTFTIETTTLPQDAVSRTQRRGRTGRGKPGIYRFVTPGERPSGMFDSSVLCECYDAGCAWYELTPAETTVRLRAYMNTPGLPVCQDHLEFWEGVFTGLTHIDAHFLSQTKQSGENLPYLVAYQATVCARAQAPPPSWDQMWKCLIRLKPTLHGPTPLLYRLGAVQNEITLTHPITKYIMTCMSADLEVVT

[15] = molecular target: Beta-adrenergic receptor kinase 1 (Homo sapiens, UniProt P25098); test: aptamer displacement from bead-bound GRK2 – biochemical, cherry pick 1, bead flow cytometry, dose response (AID 504500)
Chain of Beta-adrenergic receptor kinase 1 (P25098 whole entry, the tested form may be a part): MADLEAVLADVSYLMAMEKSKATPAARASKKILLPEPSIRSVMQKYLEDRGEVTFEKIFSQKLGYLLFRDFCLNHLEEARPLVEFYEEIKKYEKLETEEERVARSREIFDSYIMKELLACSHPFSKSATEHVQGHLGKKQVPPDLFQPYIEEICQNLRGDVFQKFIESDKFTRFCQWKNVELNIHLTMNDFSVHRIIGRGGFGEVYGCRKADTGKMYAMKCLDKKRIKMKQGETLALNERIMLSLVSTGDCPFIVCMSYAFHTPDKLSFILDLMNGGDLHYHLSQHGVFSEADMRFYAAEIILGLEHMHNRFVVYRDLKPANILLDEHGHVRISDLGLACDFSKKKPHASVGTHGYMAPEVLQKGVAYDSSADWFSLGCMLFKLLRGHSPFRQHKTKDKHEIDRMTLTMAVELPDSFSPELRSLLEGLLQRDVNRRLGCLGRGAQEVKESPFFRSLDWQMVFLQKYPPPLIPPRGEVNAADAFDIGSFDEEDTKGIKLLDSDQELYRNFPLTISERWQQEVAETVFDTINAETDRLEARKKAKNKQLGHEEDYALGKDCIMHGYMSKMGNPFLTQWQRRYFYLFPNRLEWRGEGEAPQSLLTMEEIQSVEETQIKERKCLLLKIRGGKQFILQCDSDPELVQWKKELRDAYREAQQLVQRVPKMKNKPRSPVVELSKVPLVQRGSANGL

[16] = molecular target: T5, Carboxy-terminal domain RNA polymerase II polypeptide A small phosphatase 1 (Homo sapiens, UniProt Q9GZU7); test: CTDSP1 inhibitors, concentration-response, biochemical, absorbance readout, ultra-high-throughput screen actives (AID 540297); format: functional
T5 sequence (Q9GZU7 whole entry): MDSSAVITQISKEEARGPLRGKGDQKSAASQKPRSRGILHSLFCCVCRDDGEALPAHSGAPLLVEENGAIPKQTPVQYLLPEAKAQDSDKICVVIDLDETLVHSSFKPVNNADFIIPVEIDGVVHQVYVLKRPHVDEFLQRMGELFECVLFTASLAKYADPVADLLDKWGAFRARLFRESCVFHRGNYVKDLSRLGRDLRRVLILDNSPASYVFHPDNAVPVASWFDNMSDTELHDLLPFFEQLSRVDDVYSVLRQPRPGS

[17] = molecular target: 26S proteasome non-ATPase regulatory subunit 14 (Homo sapiens, UniProt O00487); test: inhibition of proteasome subunit RPN11 – biochemical, fluorescence polarization, uHTS hits, confirmation (AID 602368); format: functional
[18] = molecular target: Prothrombin (Bos taurus, UniProt P00735); test: thrombin protease inhibitors – biochemical, fluorescence polarization, uHTS hits, dose response (AID 602369); format: functional
[19] = molecular target: Melanocortin receptor 4 (Homo sapiens, UniProt P32245); test: inhibitors of MC4R cAMP signaling – cell-based, TR-FRET, biased antagonists, dose response (AID 602298); format: functional;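 further: antagonist potency against agonist-stimulated cAMP production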
[20] = cAMP pathway inhibition in counterscreen cell line – TR-FRET cAMP detection, counter-screen for MC4R biased antagonist project, dose response (AID 602305); format: functional, cell-based;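 further: U2OS cells stimulated with forskolin near its EC80 as the cAMP inducer; potency is for inhibition of forskolin-stimulated cAMP signaling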
[21] = molecular target: 72 kDa type IV collagenase (Homo sapiens, UniProt P08253); test: Dose Response validation of uHTS RPN11 inhibitor hits using a MMP-2 Fluorescence assay.; format: functional
Chain of 72 kDa type IV collagenase (P08253 whole entry): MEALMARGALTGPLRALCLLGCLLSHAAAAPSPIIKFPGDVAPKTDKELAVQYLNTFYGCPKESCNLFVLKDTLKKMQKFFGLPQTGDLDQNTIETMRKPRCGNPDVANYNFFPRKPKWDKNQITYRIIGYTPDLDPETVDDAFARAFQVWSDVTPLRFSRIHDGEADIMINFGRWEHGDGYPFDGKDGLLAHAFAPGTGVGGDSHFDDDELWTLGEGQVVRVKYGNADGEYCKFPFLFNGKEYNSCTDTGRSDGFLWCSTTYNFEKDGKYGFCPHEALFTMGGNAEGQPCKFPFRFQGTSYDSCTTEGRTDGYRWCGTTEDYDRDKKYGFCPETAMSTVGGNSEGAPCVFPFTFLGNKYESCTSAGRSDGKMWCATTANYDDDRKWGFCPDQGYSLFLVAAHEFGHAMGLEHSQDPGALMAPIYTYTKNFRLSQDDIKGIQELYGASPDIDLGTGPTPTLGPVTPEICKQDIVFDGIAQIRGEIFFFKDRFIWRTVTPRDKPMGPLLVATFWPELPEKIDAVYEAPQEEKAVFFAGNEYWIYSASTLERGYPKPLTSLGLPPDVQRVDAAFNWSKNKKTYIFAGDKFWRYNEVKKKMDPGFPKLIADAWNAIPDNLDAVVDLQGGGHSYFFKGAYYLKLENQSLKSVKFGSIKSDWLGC

[22] = inhibition of ADAM10 peptide cleavage – biochemical, FRET peptide substrate, recombinant human ADAM10, selectivity assay for ADAM17 exosite inhibitor project, dose response (AID 743259);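 further: ADAM10 enzyme cleaving a FRET peptide substrate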
[23] = molecular target: Disintegrin and metalloproteinase domain-containing protein 17 (Homo sapiens, UniProt P78536); test: exosite inhibitors of ADAM17, dose response, biochemical (AID 743260)
[24] = Luminescence Cell-Based Dose Response Follow up to Identify Inhibitors of Platelet Dense Granule Release. [Related pubchem assays (depositor defined):AID1663, AID1678, AID2398]; format: functional
[25] = blockers of SFLLRN-triggered platelet ATP secretion – cell-based, human platelets, luminescence, dry powder, dose response (AID 493100); format: functional
[26] = molecular target: Multidrug resistance protein CDR2 (Candida albicans (strain SC5314 / ATCC MYA-2876) (Yeast), UniProt P78595); test: inhibition of Nile Red efflux via Candida CDR2 – S. cerevisiae AD1-8u, singleplex, Cherry Pick1 hits, dose response (AID 588604); format: functional
[27] = molecular target: Phospholipase D2 (Homo sapiens, UniProt O14939); test: cellular phospholipase D2 inhibition IC50 – cell-based, dose response (AID 602147); format: functional;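 further: cellular assay in HEK293 cells overexpressing GFP-tagged PLD2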
[28] = molecular target: Phospholipase D1 (Homo sapiens, UniProt Q13393); test: cellular phospholipase D1 inhibition IC50 – cell-based, dose response (AID 602151); format: functional;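 further: cellular PLD1 assay in Calu-1 cells stimulated with PMA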
[29] = molecular target: Tyrosine-protein kinase JAK2 (Homo sapiens, UniProt O60674); format: functional;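 further: JAK2 tested as one member of a kinase panel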
[30] = molecular target: Serine/threonine-protein kinase Chk1 (Homo sapiens, UniProt O14757); format: functional;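 further: measured as one member of a kinome-wide kinase profiling panel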
[31] = molecular target: Tyrosine-protein kinase BTK (Homo sapiens, UniProt Q06187); format: functional
[32] = molecular target: Dual specificity mitogen-activated protein kinase kinase 2 (Homo sapiens, UniProt P36507); test: Navigating the Kinome. Panel member name: MAP2K2; format: functional
[33] = molecular target: STE20-like serine/threonine-protein kinase (Homo sapiens, UniProt Q9H2G2); format: functional
[34] = molecular target: Tyrosine-protein kinase Fer (Homo sapiens, UniProt P16591); format: functional;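 further: FER tested as one member of a kinome panel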
Chain of Tyrosine-protein kinase Fer (P16591 whole entry): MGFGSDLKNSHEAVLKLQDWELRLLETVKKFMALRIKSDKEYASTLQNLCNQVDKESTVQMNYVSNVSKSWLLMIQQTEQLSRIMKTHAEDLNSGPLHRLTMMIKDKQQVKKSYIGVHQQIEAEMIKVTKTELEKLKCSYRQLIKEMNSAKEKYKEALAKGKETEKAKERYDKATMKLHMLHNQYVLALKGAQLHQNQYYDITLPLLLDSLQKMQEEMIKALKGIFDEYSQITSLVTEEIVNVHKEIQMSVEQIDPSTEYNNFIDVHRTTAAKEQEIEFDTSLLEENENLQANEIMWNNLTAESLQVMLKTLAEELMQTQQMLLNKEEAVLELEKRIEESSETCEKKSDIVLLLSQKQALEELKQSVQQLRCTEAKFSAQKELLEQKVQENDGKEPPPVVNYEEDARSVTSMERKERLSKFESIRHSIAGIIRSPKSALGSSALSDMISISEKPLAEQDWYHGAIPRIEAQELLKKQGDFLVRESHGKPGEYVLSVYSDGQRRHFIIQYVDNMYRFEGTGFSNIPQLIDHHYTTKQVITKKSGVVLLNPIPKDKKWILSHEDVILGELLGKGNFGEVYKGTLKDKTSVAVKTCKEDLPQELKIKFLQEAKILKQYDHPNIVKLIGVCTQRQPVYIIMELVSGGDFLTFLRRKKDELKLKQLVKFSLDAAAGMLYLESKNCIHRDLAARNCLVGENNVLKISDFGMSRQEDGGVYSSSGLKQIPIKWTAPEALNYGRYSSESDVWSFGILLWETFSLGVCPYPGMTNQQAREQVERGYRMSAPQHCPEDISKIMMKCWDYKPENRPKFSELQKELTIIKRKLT

[35] = molecular target: 5'-AMP-activated protein kinase catalytic subunit alpha-1 (Homo sapiens, UniProt Q13131); format: functional
[36] = molecular target: Dual specificity mitogen-activated protein kinase kinase 1 (Homo sapiens, UniProt Q02750); test: Navigating the Kinome. Panel member name: MAP2K1; format: functional
Chain of Dual specificity mitogen-activated protein kinase kinase 1 (Q02750 whole entry): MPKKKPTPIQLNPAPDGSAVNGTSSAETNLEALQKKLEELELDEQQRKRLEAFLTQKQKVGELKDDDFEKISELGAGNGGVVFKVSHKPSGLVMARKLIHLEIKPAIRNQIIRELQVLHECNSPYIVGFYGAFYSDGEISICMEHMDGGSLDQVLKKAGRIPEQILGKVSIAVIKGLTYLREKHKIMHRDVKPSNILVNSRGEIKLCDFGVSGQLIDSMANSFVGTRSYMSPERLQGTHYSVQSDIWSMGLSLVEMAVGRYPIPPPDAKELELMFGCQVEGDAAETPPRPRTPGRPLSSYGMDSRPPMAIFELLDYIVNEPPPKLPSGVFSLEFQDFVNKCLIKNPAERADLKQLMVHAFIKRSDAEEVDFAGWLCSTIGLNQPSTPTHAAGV

[37] = molecular target: Fibroblast growth factor receptor 3 (Homo sapiens, UniProt P22607); format: functional
[38] = molecular target: T6, Sphingosine 1-phosphate receptor 4 (Homo sapiens, UniProt O95977); test: Late-stage fluorescence-based dose-response cell-based counterscreen assay to identify agonists of the Sphingosine 1-Phosphate Receptor 3 (S1P3): Sphingosine 1-Phosphate Receptor 4 (S1P4) agonist assay.; format: functional
T6 sequence (O95977 whole entry): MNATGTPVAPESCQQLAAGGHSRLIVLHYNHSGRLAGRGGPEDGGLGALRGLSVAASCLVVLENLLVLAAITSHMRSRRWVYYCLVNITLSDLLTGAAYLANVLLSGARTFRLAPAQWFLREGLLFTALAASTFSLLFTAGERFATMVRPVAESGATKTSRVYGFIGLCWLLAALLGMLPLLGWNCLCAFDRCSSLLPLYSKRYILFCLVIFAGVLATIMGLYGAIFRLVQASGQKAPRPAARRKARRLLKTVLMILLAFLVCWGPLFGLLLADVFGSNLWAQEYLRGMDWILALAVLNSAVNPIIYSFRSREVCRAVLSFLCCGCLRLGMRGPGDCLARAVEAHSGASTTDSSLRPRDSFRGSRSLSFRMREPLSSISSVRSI

[39] = molecular target: Sphingosine 1-phosphate receptor 2 (Homo sapiens, UniProt O95136); test: Late-stage fluorescence-based dose-response cell-based counterscreen assay to identify agonists of the Sphingosine 1-Phosphate Receptor 3 (S1P3): Sphingosine 1-Phosphate Receptor 2 (S1P2) agonist assay.; format: functional
Chain of Sphingosine 1-phosphate receptor 2 (O95136 whole entry): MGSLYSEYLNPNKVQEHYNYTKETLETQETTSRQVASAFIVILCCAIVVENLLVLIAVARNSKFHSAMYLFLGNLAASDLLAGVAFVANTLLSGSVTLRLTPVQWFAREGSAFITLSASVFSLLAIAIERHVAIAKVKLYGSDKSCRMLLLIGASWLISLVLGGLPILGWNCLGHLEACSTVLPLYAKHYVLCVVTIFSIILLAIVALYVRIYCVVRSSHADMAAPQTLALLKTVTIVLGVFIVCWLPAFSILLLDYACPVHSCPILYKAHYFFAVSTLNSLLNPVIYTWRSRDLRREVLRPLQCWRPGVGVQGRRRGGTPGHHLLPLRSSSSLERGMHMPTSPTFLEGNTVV

[40] = molecular target: T7, V-type proton ATPase subunit c' (Saccharomyces cerevisiae S288c, UniProt P32842); test: Dose Response of Small Molecules that Regulate V-ATPase Proton Transport in Yeast using pHLuorin, Powder Set1.; format: functional; conditions: read-out: EC50_MICROM
T7 sequence (P32842 whole entry): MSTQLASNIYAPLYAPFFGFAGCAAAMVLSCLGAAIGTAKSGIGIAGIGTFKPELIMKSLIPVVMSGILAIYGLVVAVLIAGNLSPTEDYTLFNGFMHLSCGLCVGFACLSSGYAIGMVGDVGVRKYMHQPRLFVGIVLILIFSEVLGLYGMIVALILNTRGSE

[41] = molecular target: T7, V-type proton ATPase subunit c'; test: Dose Response with BCECF Assay for V-ATPase inhibitors that increase vacuolar pH, Powder Set 1.; format: functional; conditions: read-out: EC50_MICROM

T1 sequence (Q9GZV3 whole entry): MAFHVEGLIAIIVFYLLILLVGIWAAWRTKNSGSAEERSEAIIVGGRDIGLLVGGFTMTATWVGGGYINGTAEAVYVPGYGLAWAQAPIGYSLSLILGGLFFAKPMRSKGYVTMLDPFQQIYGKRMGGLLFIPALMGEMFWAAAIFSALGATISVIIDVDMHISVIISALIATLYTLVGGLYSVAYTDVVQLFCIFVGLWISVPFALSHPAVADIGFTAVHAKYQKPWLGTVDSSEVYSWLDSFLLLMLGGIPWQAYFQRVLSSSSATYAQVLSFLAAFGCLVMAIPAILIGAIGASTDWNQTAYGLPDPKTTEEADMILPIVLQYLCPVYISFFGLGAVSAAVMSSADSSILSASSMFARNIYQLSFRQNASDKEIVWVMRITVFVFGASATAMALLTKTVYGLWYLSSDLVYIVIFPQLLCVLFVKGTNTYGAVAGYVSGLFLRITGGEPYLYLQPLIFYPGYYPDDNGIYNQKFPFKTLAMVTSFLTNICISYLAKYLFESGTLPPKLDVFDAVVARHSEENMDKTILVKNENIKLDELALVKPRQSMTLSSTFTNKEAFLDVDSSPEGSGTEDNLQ

Structure (SMILES): CCCCC1C(=O)CC[C@H]2[C@@H]1CC(=O)[C@@H]2C/C=C\CCCC(=O)O (stereo partly specified)
- IC50 [1]: 2.38 µM (active)
- IC50 [2]: 2.13 µM (active)

Structure (SMILES): CCCn1c(=O)c2ccccc2n2c(=S)[nH]nc12
- IC50 [3]: > 99 µM (inactive)
- IC50 [4]: 18.2 µM (active)
- IC50 [5]: 2.87 µM (active)
- IC50 [6]: > 99 µM (inactive)
- IC50 [7]: > 100 µM (inactive)

Structure (SMILES): CCCOc1ccc(C(=O)C2=C(O)C(=O)N(c3ccccn3)C2c2ccc(OC)cc2)cc1C (stereo unspecified)
- IC50 [8]: 74.3 µM (active)
- EC50 [9]: 38.6 µM (active)
- EC50 [10]: 103 µM (active)
- CC50 [11]: > 40 µM (active)
- EC50 [12]: 3.78 µM (active)
- AC50 [13]: 5.07 µM (active)
- IC50 [14]: 5.74 µM (active)

Structure (SMILES): O=C(O)C1CC(=O)N(c2ccc3c(c2)OCCO3)C1 (stereo unspecified)
- EC50 [15]: 30.9 µM (inactive)
- IC50 [16]: 6.73 µM (active)

Structure (SMILES): O=C(NN=Cc1ccc(N(CCCl)CCCl)cc1)C(=O)c1c[nH]c2ccccc12
- IC50 [17]: 25.5 µM (active)
- IC50 [18]: 45.1 µM (active)
- IC50 [19]: > 64.6 µM (inactive)
- IC50 [20]: > 64.6 µM (inactive)
- IC50 [21]: > 100 µM (inactive)
- IC50 [22]: > 69.5 µM (inactive)
- IC50 [23]: > 69.5 µM (inactive)

Structure (SMILES): Cc1ccc(-c2c(C#N)c(N)n(-c3ccccc3C)c(=O)c2C#N)cc1
- EC50 [24]: 2.03 µM (active)
- AC50 [25]: 12.6 µM (active)

Structure (SMILES): COc1ccc2c(-c3ccc(OCCN4CCOCC4)cc3)c(-c3ccccc3OC)sc2c1
- EC50 [26]: 13.3 µM (active)

Structure (SMILES): Cn1c(=O)n(C2CCN(CCNC(=O)c3ccc4ccccc4c3)CC2)c2ccccc21
- IC50 [27]: 1.9 µM (active)
- IC50 [28]: 1.5 µM (active)

Structure (SMILES): COc1cc(OC)nc(N2Cc3ccccc3CC2C(=O)O)n1 (stereo unspecified)
- Ki [29]: 2.51 µM (active)
- Ki [30]: 0.794 µM (active)

Structure (SMILES): Cc1cc(Nc2cc(N3CCN(C)CC3)nc(C=Cc3ccccc3)n2)n[nH]1
- Ki [31]: 0.501 µM (active)
- Ki [32]: 0.316 µM (active)
- Ki [33]: 0.501 µM (active)
- Ki [34]: 0.316 µM (active)
- Ki [35]: 0.501 µM (active)
- Ki [36]: 0.501 µM (active)
- Ki [37]: 0.1 µM (active)

Structure (SMILES): COc1ccc(-c2cc(C(=O)N(C3CCCCC3)C3CCCCC3)no2)cc1
- EC50 [38]: > 50 µM (inactive)
- EC50 [39]: > 50 µM (inactive)

Structure (SMILES): O=C(c1ccc([N+](=O)[O-])o1)N1CCN(c2cccc(Cl)c2)CC1
- EC50 [40]: 12.4 µM (active)
- EC50 [41]: 1.25 µM (active)
